Results published in patent publication US8828908B2, “Herbicidally active bicyclic 1,3-dione compounds” (Syngenta Limited, priority 2007, dated 2014).

Legend:
Type in all cases: in vivo
[1] = system: Alopecurus myosuroides (ALOMY); assay: Example A post-emergence herbicidal glasshouse test; settings: 312 h, evaluated after 13 days, 100=total damage to plant, 0=no damage
Method in brief: (§1)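 Damage rating, 0–100, at 13 d after application. Spray solution: a.i. in acetone/water (50:50), 0.5% Tween 20. Applied 1 d after sowing or at 8 d growth; pots held at 24/16 °C, 14 h light, 65% humidity.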

[2] = system: Solanum nigrum (SOLNI); assay: as above; settings: 250 g/ha, evaluated after 13 days, 100=total damage to plant, 0=no damage
Method in brief: as §1

[3] = system: Avena fatua (AVEFA); assay: as above; settings: 312 h, evaluated after 13 days, 100=total damage to plant, 0=no damage
Method in brief: as §1

[4] = system: Echinochloa crus-galli (ECHCG); assay: as above; settings: 312 h, evaluated after 13 days, 100=total damage to plant, 0=no damage
Method in brief: as §1

[5] = system: Setaria faberi (SETFA); assay: as above; settings: 312 h, evaluated after 13 days, 100=total damage to plant, 0=no damage
Method in brief: as §1

[6] = system: Amaranthus retroflexus (AMARE); assay: as above; settings: 312 h, evaluated after 13 days, 100=total damage to plant, 0=no damage
Method in brief: as §1

[7] = system: Alopecurus myosuroides (ALOMY); assay: Example A pre-emergence herbicidal glasshouse test; settings: 312 h, Rate 250 g/ha, evaluated after 13 days, 100=total damage to plant, 0=no damage to plant
Method in brief: as §1

[8] = system: Solanum nigrum (SOLNI); assay: Example A pre-emergence herbicidal glasshouse test; settings: Rate 250 g/ha, evaluated after 13 days, 100=total damage to plant, 0=no damage to plant
Method in brief: as §1

[9] = system: Avena fatua (AVEFA); assay: Example A pre-emergence herbicidal glasshouse test; settings: 312 h, Rate 250 g/ha, evaluated after 13 days, 100=total damage to plant, 0=no damage to plant
Method in brief: as §1

[10] = system: Echinochloa crus-galli (ECHCG); assay: Example A pre-emergence herbicidal glasshouse test; settings: 312 h, Rate 250 g/ha, evaluated after 13 days, 100=total damage to plant, 0=no damage to plant
Method in brief: as §1

[11] = system: Setaria faberi (SETFA); assay: Example A pre-emergence herbicidal glasshouse test; settings: 312 h, Rate 250 g/ha, evaluated after 13 days, 100=total damage to plant, 0=no damage to plant
Method in brief: as §1

[12] = system: Amaranthus retroflexus (AMARE); assay: Example A pre-emergence herbicidal glasshouse test; settings: 312 h, Rate 250 g/ha, evaluated after 13 days, 100=total damage to plant, 0=no damage to plant
Method in brief: as §1

[13] = system: Alopecurus myosuroides (ALOMY); assay: Example B pre-emergence herbicidal greenhouse test; settings: 480 h, evaluated after 20 days, 100=total damage to plant, 0=no damage
Method in brief: (§2)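 Spray of formulated compound 1 day after sowing (pre-emergence) or onto seedlings 10 days after sowing (post-emergence); greenhouse growth under optimum conditions; evaluation at 20 days (pre) or 15 days (post), 0-100 damage.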

[14] = system: Avena fatua (AVEFA); assay: Example B pre-emergence herbicidal greenhouse test; settings: 480 h, evaluated after 20 days, 100=total damage to plant, 0=no damage
Method in brief: as §2

[15] = system: Echinochloa crus-galli (ECHCG); assay: Example B pre-emergence herbicidal greenhouse test; settings: 480 h, evaluated after 20 days, 100=total damage to plant, 0=no damage
Method in brief: as §2

[16] = system: Lolium perenne (LOLPE); assay: Example B pre-emergence herbicidal greenhouse test; settings: 480 h, evaluated after 20 days, 100=total damage to plant, 0=no damage
Method in brief: as §2

[17] = system: Digitaria sanguinalis (DIGSA); assay: Example B pre-emergence herbicidal greenhouse test; settings: 480 h, evaluated after 20 days, 100=total damage to plant, 0=no damage
Method in brief: as §2

[18] = system: Setaria faberi (SETFA); assay: Example B pre-emergence herbicidal greenhouse test; settings: 480 h, evaluated after 20 days, 100=total damage to plant, 0=no damage
Method in brief: as §2

[19] = system: Alopecurus myosuroides (ALOMY); assay: Example B post-emergence herbicidal greenhouse test; settings: 360 h, evaluated after 15 days, 100=total damage to plant, 0=no damage
Method in brief: as §2

[20] = system: Avena fatua (AVEFA); assay: as above; settings: 360 h, evaluated after 15 days, 100=total damage to plant, 0=no damage
Method in brief: as §2

[21] = system: Echinochloa crus-galli (ECHCG); assay: as above; settings: 360 h, evaluated after 15 days, 100=total damage to plant, 0=no damage
Method in brief: as §2

[22] = system: Lolium perenne (LOLPE); assay: as above; settings: 360 h, evaluated after 15 days, 100=total damage to plant, 0=no damage
Method in brief: as §2

[23] = system: Digitaria sanguinalis (DIGSA); assay: as above; settings: 360 h, evaluated after 15 days, 100=total damage to plant, 0=no damage
Method in brief: as §2

[24] = system: Setaria faberi (SETFA); assay: as above; settings: 360 h, evaluated after 15 days, 100=total damage to plant, 0=no damage
Method in brief: as §2

Compound	pest or weed control at 250 g/ha [1] [%]	SOLNI damage to plant [2]	pest or weed control at 250 g/ha [3] [%]	pest or weed control at 250 g/ha [4] [%]	pest or weed control at 250 g/ha [5] [%]	pest or weed control at 250 g/ha [6] [%]	pest or weed control at 250 g/ha [7] [%]	SOLNI damage to plant [8]	pest or weed control at 250 g/ha [9] [%]	pest or weed control at 250 g/ha [10] [%]	pest or weed control at 250 g/ha [11] [%]	pest or weed control at 250 g/ha [12] [%]	pest or weed control at 250 g/ha [13] [%]	pest or weed control at 250 g/ha [14] [%]	pest or weed control at 250 g/ha [15] [%]	pest or weed control at 250 g/ha [16] [%]	pest or weed control at 250 g/ha [17] [%]	pest or weed control at 250 g/ha [18] [%]	pest or weed control at 125 g/ha [19] [%]	pest or weed control at 125 g/ha [20] [%]	other results
CCc1ccc(-c2ccc(C)c(C3=C(O)[C@H]4CC[C@H](C4)C3=O)c2)cc1 (single isomer, unassigned) [Compound T14]	0	0	0	30	70	0	0	0	0	0	0	0	–	–	–	–	–	–	–	–	–
Cc1cc(C)c(-c2ccc(C)c(C3=C(O)[C@H]4CC[C@H](C4)C3=O)c2)c(C)c1 (single isomer, unassigned) [Compound T15]	–	0	–	–	0	0	0	–	0	–	0	0	–	–	–	–	–	–	–	–	–
CCc1ccc(-c2ccc(Cl)cc2Cl)cc1C1=C(O)[C@H]2CC[C@H](C2)C1=O [Compound T44, 3-(2′,4′-dichloro-4-ethylbiphen-3-yl)bicyclo[3.2.1]octane-2,4-dione]	90	–	90	100	100	0	50	–	20	90	100	0	0	10	50	10	80	70	60	90	pest or weed control at 125 g/ha [21]: 100%; pest or weed control at 125 g/ha [22]: 30%; pest or weed control at 125 g/ha [23]: 100%; pest or weed control at 125 g/ha [24]: 100%
Cc1ccc(-c2ccc(F)cc2)cc1C1=C(O)[C@H]2CC[C@H](C2)C1=O (single isomer, unassigned) [Compound T17]	10	0	0	70	80	0	0	0	10	50	80	0	–	–	–	–	–	–	–	–	–
CCc1ccc(-c2ccc(Cl)cc2Cl)cc1C1=C(OC(C)=O)[C@H]2CC[C@H](C2)C1=O (single isomer, unassigned) [Compound P7]	90	–	100	100	100	0	40	–	90	100	100	0	70	30	50	70	80	80	60	80	pest or weed control at 125 g/ha [21]: 100%; pest or weed control at 125 g/ha [22]: 70%; pest or weed control at 125 g/ha [23]: 90%; pest or weed control at 125 g/ha [24]: 100%
